# According to PMC5588548, “Suramin Inhibits Osteoarthritic Cartilage Degradation by Increasing Extracellular Levels of Chondroprotective Tissue Inhibitor of Metalloproteinases 3” (Molecular Pharmacology, 2017):
# Molecular target: T1, human TIMP-3 (Homo sapiens, UniProt P35625)
# T1 construct: made in house; host or cells: human embryonic kidney 293 cells
# T1 sequence (P35625 24-211): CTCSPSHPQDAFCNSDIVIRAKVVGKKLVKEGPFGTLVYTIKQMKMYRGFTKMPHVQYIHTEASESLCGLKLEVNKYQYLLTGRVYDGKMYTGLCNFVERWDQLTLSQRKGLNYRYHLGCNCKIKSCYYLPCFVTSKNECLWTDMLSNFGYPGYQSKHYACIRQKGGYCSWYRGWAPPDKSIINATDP
# Experiment: Solid-phase binding of TIMP-3 to immobilized suramin or analogs (ELISA)
# Settings: TIMP-3 0.4–50 nM
# Description: Glycosaminoglycan-binding ELISA plates (BD Life Sciences, Swindon, UK) were coated with suramin or its analogs (10 µg/ml in Tris-buffered saline, 18 hours, 25°C) ([Mahoney et al., 2004]) and wells were blocked with 0.2% gelatin in PBS (1 hour, 37°C). Wells were washed in PBS containing 0.1% Tween 20 after this and every subsequent step. Purified FLAG-tagged human TIMP-3 (0.4–50 nM) in blocking solution was applied to wells (3 hours, 37°C), and binding was detected with anti-FLAG M2 primary antibody and anti-mouse horseradish peroxidase–conjugated secondary antibody. 3,3′,5,5′-Tetramethylbenzidine (Becton Dickinson, Swindon, UK) substrate was added, the reaction was stopped when appropriate by adding 2 N H2SO4, and absorbance at 450 nm was measured using a FLUOstar Omega microplate reader (BMG Labtech, Aylesbury, Buckinghamshire, UK). Data (mean ± S.E., n = 3 technical repeats) were analyzed using Prism 7.0b software (GraphPad Software, La Jolla, CA) and EC50 values determined using a one-site specific binding model. Flat planar dimensions of suramin analogs were estimated using ICM-Pro software (Molsoft LLC, San Diego, CA).
smiles,measurement,setting,value
Cc1ccc(C(=O)Nc2ccc(S(=O)(=O)O)c3cc(S(=O)(=O)O)cc(S(=O)(=O)O)c23)cc1NC(=O)c1cccc(NC(=O)Nc2cccc(C(=O)Nc3cc(C(=O)Nc4ccc(S(=O)(=O)O)c5cc(S(=O)(=O)O)cc(S(=O)(=O)O)c45)ccc3C)c2)c1 [suramin],EC50,"plates coated with 10 µg/ml compound, one-site specific binding model, mean ± S.E., n = 3",1.9 ± 0.21 nM
same,Kd,"solid-phase binding assay, plates coated 10 µg/ml, read-out: KD value for TIMP-3 binding to immobilized compound",1.9 ± 0.2 nM
